Marks after values point to notes of the source that are not given here.
What was measured:
[1] = Diarrhea index in piglets (Example 4); type: in vivo, PIC genetics
Description: (§1) Composition of Example 4 was tested in piglets to evaluate their performance ratio in comparison with growth promoter antibiotic (GPA) and with sodium butyrate. All were added to the rations of the respective treatments as growth promoting additives.
(§2) Sixty-three piglets were weaned at 22 days of age, with a start average body weight of 5.48 kg, both sexes, PIC genetics. The animals were separated by sex and distributed into 3 treatments, with 7 replicates of 3 animals each, during the whole period (22 to 64 days of age). Diet was formulated without Zinc Oxide or any other antimicrobial.
(§3) T1: Basal Diet+GPA (colistin 8%—40 ppm)
(§4) T2: Basal Diet+Sodium Butyrate 30% (1 kg/t)
(§5) T3: Basal Diet+Composition of the Invention of Example 4 (2 kg/t)

[2] = Piglet performance with growth promoting additives (Example 4); type: in vivo, PIC genetics; conditions: piglets 22 to 64 days of age
Description: as §1, §2, §3, §4, §5

[3] = test system: sulfite-reducing Clostridium; assay: Sulfite-reducing Clostridium CFU count in cecum fecal material of challenged chickens (Examples 8, 9, 10); type: in vivo; conditions: cecum fecal material at 28 days; colony forming units
Description: Compositions of examples 8, 9 and 10 were used as growth promoting additives for growing chicken feeds, i.e., during the first 28 days of life, to evaluate the control of Salmonella heidelbergii. On the fourth day of life, 20% of the birds were inoculated with Salmonella heidelbergii. At the end of the 28 days, fecal material was collected from the cecum of the birds and the counting of colony forming units (CFUs) of Salmonella and sulfite-reducing Clostridium.
The treatments were as follows:
T1: Basal Diet+SH Challenge—WITHOUT GPA (growth promoting antibiotic)
T2: Basic Diet+SH+APC Challenge (Enramicima 8 ppm)
T3: Basal Diet+SH Challenge+Sodium Butyrate (1.5 kg/t of feed)
T4: Basal Diet+Composition of the Invention of Example 8—3 kg/t
T5: Basal Diet+Composition of the Invention of Example 9—3 kg/t
T6: Basal Diet+Composition of the Invention of Example 10—3 kg/t
T7: Basal Diet+Composition of the Invention of Example 9—3 kg/t+Probiotic

[4] = Fatty acids in cecum of piglets (Example 4); type: in vivo, PIC genetics
Description: as §1, §2, §3, §4, §5

[5] = test system: Salmonella; assay: Salmonella Control Efficiency Index by 'propé' drag swab tests, commercial broiler chickens; type: in vivo; conditions: Antibiotic=100
Description: (§6) Formulations of examples 2 and 3 were administered to commercial broiler chickens, with an inclusion of 2 kg per ton of feed. The results are shown in Tables 12 (Diets with Zinc Bacitracin Antibiotic, As Growth Promoter Additives), 13 (Diets with the Composition of Example 2, as Growth Promoter Additives) and 14 (Diets with the Composition of Example 3, As Growth Promoter Additive) below.
(§7) Note: (*)—Salmonella Control Efficiency Index, measured by conducting a ‘propé’ [shoe covers] drag swab tests. Antibiotic=100 (**)—Zinc Bacitracin

[6] = Growth promoter additives in commercial broiler chicken diets (Examples 2 and 3 vs Zinc Bacitracin); type: in vivo, commercial broiler chickens
Description: as §6, §7

Molecule: CCCC(=O)[O-].[Na+] [Sodium Butyrate]
- Diarrhea index ([1]; Grade I): 22^b
- Diarrhea index ([1]; Grade II): 33^ab
- Diarrhea index ([1]; Grade III): 53^b
- CA = feed conversion [2]: 2.07
- Sulfite-reducing Clostridium [3]: 4959
- Fatty acids in Cecum: Acetic [4]: 0.38
- Fatty acids in Cecum: Butyric [4]: 0.18
- Fatty acids in Cecum: Propionic [4]: 0.32^a
- Fatty acids in Cecum: Total [4]: 0.87

Molecule: Zinc Bacitracin
- Control of Salmonella (Salmonella Control Efficiency Index) ([5]; Average of Productions 1-4): 100
- Control of Salmonella (Salmonella Control Efficiency Index) ([5]; Production 1): 100
- Control of Salmonella (Salmonella Control Efficiency Index) ([5]; Production 2): 100
- Control of Salmonella (Salmonella Control Efficiency Index) ([5]; Production 3): 100
- Control of Salmonella (Salmonella Control Efficiency Index) ([5]; Production 4): 100
- Feed Conversion ([6]; Average of Productions 1-4): 1.69
- Final Average Body Weight ([6]; Average of Productions 1-4): 3.11 kgBW/bird
- Food Intake ([6]; Average of Productions 1-4): 5.159 kg/Bird
- Feed Conversion ([6]; Production 1): 1.72
- Final Average Body Weight ([6]; Production 1): 3.14 kgBW/bird
- Food Intake ([6]; Production 1): 5.329 kg/Bird
- Feed Conversion ([6]; Production 2): 1.71
- Final Average Body Weight ([6]; Production 2): 3.07 kgBW/bird
- Food Intake ([6]; Production 2): 5.167 kg/Bird
- Feed Conversion ([6]; Production 3): 1.60
- Final Average Body Weight ([6]; Production 3): 3.20 kgBW/bird
- Food Intake ([6]; Production 3): 5.034 kg/Bird
- Feed Conversion ([6]; Production 4): 1.72
- Final Average Body Weight ([6]; Production 4): 3.01 kgBW/bird
- Food Intake ([6]; Production 4): 5.105 kg/Bird
